Measurements as given in US9273057B2 (Bristol-Myers Squibb Company, priority 2012, dated 2016).

Biological target: CK2A1 (CK2α/β) (Homo sapiens, UniProt P68400)
Assay: CK2 kinase assay, CK2A1 (CK2α/β)
Type: biochemical
Details: Table A; read-out: CK2A1 (CK2α/β) (IC50)

CK2A1 (CK2α/β), sequence (P68400 whole entry, species assumed): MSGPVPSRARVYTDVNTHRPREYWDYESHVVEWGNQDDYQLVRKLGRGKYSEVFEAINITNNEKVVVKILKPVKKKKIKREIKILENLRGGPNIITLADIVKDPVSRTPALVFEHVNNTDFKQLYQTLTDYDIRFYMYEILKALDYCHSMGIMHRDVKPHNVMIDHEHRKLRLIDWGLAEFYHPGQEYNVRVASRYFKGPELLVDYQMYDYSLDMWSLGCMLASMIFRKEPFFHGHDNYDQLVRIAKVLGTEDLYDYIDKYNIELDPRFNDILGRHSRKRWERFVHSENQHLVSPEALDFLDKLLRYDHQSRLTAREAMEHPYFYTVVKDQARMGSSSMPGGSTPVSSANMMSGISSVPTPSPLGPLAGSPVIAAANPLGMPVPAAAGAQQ
CK2A1 (CK2α/β), sequence (P67870 whole entry partner, species assumed): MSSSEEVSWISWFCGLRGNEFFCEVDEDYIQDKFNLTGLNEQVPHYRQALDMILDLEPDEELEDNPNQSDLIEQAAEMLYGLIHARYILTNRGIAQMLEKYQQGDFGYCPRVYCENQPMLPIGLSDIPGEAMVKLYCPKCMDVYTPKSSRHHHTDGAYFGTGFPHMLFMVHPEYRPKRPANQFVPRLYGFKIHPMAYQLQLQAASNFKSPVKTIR

| Structure (SMILES) | IC50 |
| --- | --- |
| CN1CCCC(C(=O)N2CCN(c3cc(C#N)cc(Nc4nc(NC5CC5)c5ncc(C#N)n5n4)c3Cl)CC2)C1 (racemic) [Example 92, (+/−) 2-((2-chloro-5-cyano-3-(4-((1-methyl-3-piperidinyl)carbonyl)-1-piperazinyl)phenyl)amino)-4-(cyclopropylamino) imidazo[2,1-f][1,2,4] triazine-7-carbonitrile] | 1.12 nM |
| N#Cc1cc(CCC2CNCCO2)c(Cl)c(Nc2nc(NC3CC3)c3ncc(C#N)n3n2)c1 (racemic) [Example 739, (+/−)-2-((2-chloro-5-cyano-3-(2-(morpholin-2-yl)ethyl)phenyl)amino)-4-(cyclopropylamino) imidazo[2,1-f][1,2,4]triazine-7-carbonitrile] | 0.45 nM |
| N#Cc1cc(CN2CCNC(C(F)(F)F)C2)c(Cl)c(Nc2nc(NC3CC3)c3ncc(C#N)n3n2)c1 (racemic) [Example 696, (+/−)-2-((2-chloro-5-cyano-3-((3-(trifluoromethyl)piperazin-1-yl)methyl)phenyl)amino)-4-(cyclopropylamino)imidazo[2,1-f][1,2,4]triazine-7-carbonitrile] | 1.48 nM |
| N#Cc1cc(Nc2nc(NC3CC3)c3ncc(C#N)n3n2)c(Cl)c(N2CCC3(CCCN3)C2)c1 (racemic) [Example 31, (+/−) 2-((2-chloro-5-cyano-3-(1,7-diazaspiro[4.4]non-7-yl)phenyl)amino)-4-(cyclopropylamino)imidazo [2,1-f][1,2,4]triazine-7-carbonitrile] | 0.61 nM |
| CCNc1nc(Nc2cc(C#N)cc(N3C[C@@H]4C[C@H]3CN4C)c2Cl)nn2c(C#N)cnc12 [Example 773, 2-((2-chloro-5-cyano-3-((1S,4S)-5-methyl-2,5-diazabicyclo[2.2.1]heptan-2-yl)phenyl)amino)-4-(ethylamino)imidazo[2,1-f][1,2,4]triazine-7-carbonitrile] | 0.64 nM |
| COC(=O)N[C@H]1CCN(c2cc(C#N)cc(Nc3nc(NC4CC4)c4ncc(C#N)n4n3)c2Cl)CC1NCC(C)(C)O (stereo in doubt) [Example 755, methyl N-[(3S,4S)-1-(2-chloro-5-cyano-3-{[7-cyano-4-(cyclopropylamino)imidazo [2,1-f][1,2,4]triazin-2-yl]amino}phenyl)-3-[(2-hydroxy-2-methylpropyl)amino]piperidin-4-yl]carbamate] | 2.7 nM |
| CC1(O)CCN(C2CN(c3cc(C#N)cc(Nc4nc(NC5CC5)c5ncc(C#N)n5n4)c3Cl)C2)CC1 [Example 157, 2-((2-chloro-5-cyano-3-(3-(4-hydroxy-4-methyl-1-piperidinyl)-1-azetidinyl)phenyl)amino)-4-(cyclopropylamino)imidazo [2,1-f][1,2,4]triazine-7-carbonitrile] | 0.8 nM |
| CCNc1nc(Nc2cc(NC(=O)OC)cc(C3CCN(C)CC3)c2Cl)nn2c(C#N)cnc12 [Example 398, methyl (4-chloro-3-((7-cyano-4-(ethylamino)imidazo[2,1-f][1,2,4]triazin-2-yl)amino)-5-(1-methylpiperidin-4-yl)phenyl)carbamate] | 3.3 nM |
| CC(C)(O)CC(=O)N1CCN(c2cc(C#N)cc(Nc3nc(NC4CC4)c4ncc(C#N)n4n3)c2Cl)CC1 [Example 91] | 0.49 nM |
| N#Cc1cc(Nc2nc(NC3CC3)c3ncc(C#N)n3n2)c(Cl)c(C2CCN(CC(O)CF)CC2)c1 (racemic) [Example 380, (+/−)-2-((2-chloro-5-cyano-3-(1-(3-fluoro-2-hydroxypropyl)-4-piperidinyl)phenyl)amino)-4-(cyclopropylamino)imidazo[2,1-f][1,2,4]triazine-7-carbonitrile] | 0.65 nM |
| CC(=O)N1CCC2CN(c3cc(C#N)cc(Nc4nc(NC5CC5)c5ncc(C#N)n5n4)c3Cl)CCC21 (centres unmarked) [Example 446, 2-((3-(1-acetylhexahydro-1H-pyrrolo[3,2-c]pyridin-5(6H)-yl)-2-chloro-5-cyanophenyl)amino)-4-(cyclopropylamino)imidazo[2,1-f][1,2,4]triazine-7-carbonitrile] | 3.48 nM |
| N#Cc1cnc2c(NC3CC3)nc(Nc3cc(C(F)F)cc(N4CC(N5CCOCC5)C4)c3Cl)nn12 [Example 279, 2-((2-chloro-5-(difluoromethyl)-3-(3-(4-morpholinyl)-1-azetidinyl)phenyl)amino)-4-(cyclopropylamino)imidazo[2,1-f][1,2,4]triazine-7-carbonitrile] | 0.76 nM |
| N#Cc1cnc2c(NC3CC3)nc(Nc3cc(OC(F)F)cc(N4CCNCC4)c3Cl)nn12 [Example 558, 2-((2-chloro-5-(difluoromethoxy)-3-(piperazin-1-yl)phenyl)amino)-4-(cyclopropylamino)imidazo[2,1-f][1,2,4]triazine-7-carbonitrile] | 5.37 nM |
| N#Cc1cc(Nc2nc(NC3CC3)c3ncc(C#N)n3n2)c(Cl)c(N2CCC(O)CC2)c1 [Example 39, 2-((2-chloro-5-cyano-3-(4-hydroxy-1-piperidinyl)phenyl)amino)-4-(cyclopropylamino)imidazo [2,1-f][1,2,4]triazine-7-carbonitrile] | 0.46 nM |
| CC(C)(N)C(=O)N1CCC(c2cc(C#N)cc(Nc3nc(NC4CC4)c4ncc(C#N)n4n3)c2Cl)CC1 [Example 239, 2-((2-chloro-5-cyano-3-(1-(2-methylalanyl)-4-piperidinyl)phenyl)amino)-4-(cyclopropylamino)imidazo[2,1-f][1,2,4]triazine-7-carbonitrile] | 0.49 nM |
| CCNc1nc(Nc2cc(C#N)cc(N3CCN4C[C@H](O)C[C@H]4C3)c2Cl)nn2c(C#N)cnc12 (racemic) [Example 436, (+/−)-2-((2-chloro-5-cyano-3-((7R,8aS)-7-hydroxyhexahydropyrrolo[1,2-a]pyrazin-2(1H)-yl)phenyl)amino)-4-(ethylamino)imidazo[2,1-f][1,2,4]triazine-7-carbonitrile] | 2.51 nM |
| N#Cc1cc(Nc2nc(NC3CC3)c3ncc(C#N)n3n2)c(Cl)c(N2CCC[C@@H](NC3COC3)C2)c1 [Example 42, 2-((2-chloro-5-cyano-3-((3R)-3-(3-oxetanylamino)-1-piperidinyl)phenyl)amino)-4-(cyclopropylamino)imidazo [2,1-f][1,2,4]triazine-7-carbonitrile] | 2.58 nM |
| COCC(NC1CCN(c2cc(C#N)cc(Nc3nc(NC4CC4)c4ncc(C#N)n4n3)c2Cl)CC1)C1CC1 (racemic) [Example 142, (+/−) 2-((2-chloro-5-cyano-3-(4-((1-cyclopropyl-2-methoxyethyl)amino)-1-piperidinyl)phenyl)amino)-4-(cyclopropylamino)imidazo [2,1-f][1,2,4]triazine-7-carbonitrile] | 0.67 nM |
| CCN(C1CCN(c2cc(C#N)cc(Nc3nc(NC4CC4)c4ncc(C#N)n4n3)c2Cl)CC1)C1CC(=O)N(C)C1 (centres unmarked) [Example 715, 2-[(2-chloro-5-cyano-3-{4-[ethyl(1-methyl-5-oxopyrrolidin-3-yl)amino]piperidin-1-yl}phenyl)amino]-4-(cyclopropylamino)imidazo [2,1-f][1,2,4]triazine-7-carbonitrile] | 10.8 nM |
| N#Cc1cc(Nc2nc(NC3CC3)c3ncc(C#N)n3n2)c(Cl)c(N2CC[C@@H](NC3COC3)C2)c1 [Example 44, 2-((2-chloro-5-cyano-3-((3R)-3-(3-oxetanylamino)-1-pyrrolidinyl)phenyl)amino)-4-(cyclopropylamino)imidazo [2,1-f][1,2,4]triazine-7-carbonitrile] | 0.33 nM |
